This passage reports log(1/C) and logP results from ChEMBL document CHEMBL1153846, “QSAR studies for diarylpyrimidines against HIV-1 reverse transcriptase wild-type and mutant strains” (Eur J Med Chem, 2009).

Series [1] relates to Human immunodeficiency virus type 1 reverse transcriptase (Human immunodeficiency virus 1), Q72547 [[…]]. The series is described as follows: Inhibition of HIV1 reverse transcriptase Y188L mutant.
The nature of series [2]: Hydrophobic index, Log P of the compound. It counts as physicochemical. The settings on record: octanol/water.
In series [3] the test system is Human immunodeficiency virus type 1 reverse transcriptase (Human immunodeficiency virus 1), Q72547 [L100I]. Description: Inhibition of HIV1 reverse transcriptase L100I mutant.
Series [4] concerns Human immunodeficiency virus type 1 reverse transcriptase (Human immunodeficiency virus 1), Q72547 [Y181C]. Description: Inhibition of HIV1 reverse transcriptase Y181C mutant.
Series [5] deals with Human immunodeficiency virus type 1 reverse transcriptase (Human immunodeficiency virus 1) (UniProt Q72547). Description: Inhibition of HIV1 wild type reverse transcriptase.

As usually defined, the logP is a log measure of how a compound divides between an organic and an aqueous phase. For the compound `N#Cc1ccc(Nc2nccc(Nc3c(Br)cc(F)cc3Br)n2)cc1`, the log(1/C) in series [1] came out at 7.19; in series [3], 7.82; in series [4], 7.82; in series [5], 9.22. For the same compound, the logP in series [2] (read-out: logP) was determined as 0.68.

Regarding `Cc1cc(C#N)cc(C)c1Sc1ccnc(Nc2ccc(C#N)cc2)n1`, the log(1/C) in series [1] was 7.36; in series [3], 6.76; in series [4] it was 7.17; in series [5], 8.24. The logP in series [2] (read-out: logP) worked out at 2.06.

As to `Cc1cc(Br)cc(C)c1Oc1ccnc(Nc2ccc(C#N)cc2)n1`, the log(1/C) in series [1] came to 7.1; in series [3], 6.95; in series [4] it was 7.23; in series [5], 8.54. Also, the logP in series [2] (read-out: logP) stood at 1.72.

As to `C#Cc1cc(C)c(Oc2ccnc(Nc3ccc(C#N)cc3)n2)c(C)c1`, the log(1/C) stood at 7.3 in series [1], 6.73 in series [3], 6.77 in series [4] and 8.26 in series [5]. The logP in series [2] (read-out: logP) was determined as 1.53.

As for `Cc1cc(C)c(Nc2nc(Nc3ccc(C#N)cc3)ncc2Cl)c(C)c1`, the log(1/C) in series [1] is 7.47; in series [3] it was 7.77; in series [4] it was 7.49; in series [5], 8.57. Moreover, in series [2] (read-out: logP), the logP is 1.72.

In the case of `Cc1cc(C#N)cc(C)c1Nc1nc(Nc2ccc(C#N)cc2)ncc1C#N`, the log(1/C) in series [1] came out at 8.07; in series [3] it was 7.04; in series [4], 7.12; in series [5], 9.3. Moreover, the logP in series [2] (read-out: logP) came to 1.06.

For `Cc1cc(C#N)cc(C)c1Nc1nc(Nc2ccc(C#N)cc2)nc(CO)c1Br`, the log(1/C) in series [1] is 8.22; in series [3], 8.7; in series [4], 8.22; in series [5] it was 8.4. Besides, in series [2] (read-out: logP), the logP worked out at 0.81.

Consider `C=Cc1cnc(Nc2ccc(C#N)cc2)nc1Nc1c(C)cc(C)cc1C`, for which the log(1/C) turned out to be 7.54 in series [1], 7.46 in series [3], 7.44 in series [4] and 8.6 in series [5]. Also, the logP in series [2] (read-out: logP) was determined as 2.1.

With `Cc1cc(C)c(Oc2ccnc(Nc3ccc(C#N)cc3)n2)c(C)c1`, the log(1/C) in series [1] was 7.26; in series [3], 7.66; in series [4], 7.42; in series [5], 8.54. Besides, in series [2] (read-out: logP), the logP was determined as 1.82.

On to `Cc1cc(C)c(Oc2nc(Nc3ccc(C#N)cc3)ncc2Br)c(C)c1`, for which the log(1/C) is 7.57 in series [1], 7.96 in series [3], 7.44 in series [4] and 8.26 in series [5]. The logP in series [2] (read-out: logP) was determined as 1.82.

As for `Cc1cc(C)c(Nc2nc(Nc3ccc(C#N)cc3)ncc2-c2ccccc2)c(C)c1`, in series [2] (read-out: logP), the logP stood at 3.14. Also, the log(1/C) in series [5] was found to be 7.62.

For `Cc1cccc(C)c1Nc1ccnc(Nc2ccc(C#N)cc2)n1`, the log(1/C) in series [1] was found to be 6.59; in series [3], 6.67; in series [4], 7.21; in series [5] it was 9.15. Moreover, in series [2] (read-out: logP), the logP is 1.49.

As for `Cc1cc(C)c(Sc2ccnc(Nc3ccc(C#N)cc3)n2)c(C)c1`, the log(1/C) stood at 7.7 in series [1], 7.27 in series [3], 7.6 in series [4] and 8.44 in series [5]. The logP in series [2] (read-out: logP) worked out at 2.16.

Regarding `CC(=O)Nc1cnc(Nc2ccc(C#N)cc2)nc1Oc1c(C)cc(C#N)cc1C`, the logP in series [2] (read-out: logP) was -0.38.

Consider `Cc1cc(C#N)cc(C)c1Nc1nc(Nc2ccc(C#N)cc2)ncc1Cl`, for which the log(1/C) in series [1] came out at 8.33; in series [3], 8.28; in series [4], 7.85; in series [5], 8.92. The logP in series [2] (read-out: logP) is 1.11.

As for `Cc1cc(C)c(Nc2nc(Nc3ccc(C#N)cc3)ncc2C#N)c(C)c1`, the log(1/C) in series [1] worked out at 7.11; in series [3], 7.2; in series [4] it was 7.4; in series [5], 9. Besides, in series [2] (read-out: logP), the logP came out at 1.49.

`Cc1cnc(Nc2ccc(C#N)cc2)nc1Nc1c(C)cc(C#N)cc1C`: the log(1/C) in series [1] was 7.8; in series [3], 7.8; in series [4], 7.92; in series [5], 9.1. The logP in series [2] (read-out: logP) was 1.49.

As to `Cc1cc(Cl)cc(C)c1Nc1ccnc(Nc2ccc(C#N)cc2)n1`, the log(1/C) in series [1] was 6.94; in series [3] it was 6.49; in series [4], 7.72; in series [5], 8.68. Moreover, in series [2] (read-out: logP), the logP worked out at 1.27.

Regarding `Cc1cc(C#N)cc(C)c1Oc1nc(Nc2ccc(C#N)cc2)ncc1[N+](=O)[O-]`, the log(1/C) in series [1] came to 6.11; in series [3], 6.92; in series [4], 6.52; in series [5] it was 7.74. Moreover, in series [2], the logP was 0.7.

In the case of `Cc1cc(C#N)cc(C)c1Nc1ccnc(Nc2ccc(C#N)cc2)n1`, the log(1/C) in series [1] is 8.11; in series [3] it was 7.47; in series [4] it was 8.15; in series [5] it was 9.4. Besides, in series [2] (read-out: logP), the log partition coefficient (logP) was found to be 1.21.

As to `N#Cc1ccc(Nc2nccc(Nc3c(Cl)cc(Cl)cc3Cl)n2)cc1`, the log(1/C) in series [1] came to 7; in series [3], 7.85; in series [4] it was 8; in series [5], 9.15. Besides, the logP in series [2] (read-out: logP) amounted to 0.51.

Consider `C#Cc1cnc(Nc2ccc(C#N)cc2)nc1Nc1c(C)cc(C)cc1C`, for which the logP in series [2] (read-out: logP) was 1.63.

With `Cc1cc(C#N)cc(C)c1Nc1nc(Nc2ccc(C#N)cc2)nc(NO)c1Br`, the logP in series [2] (read-out: logP) came to 2.18. The log(1/C) in series [3] turned out to be 8.92; in series [4] it was 7.92; in series [5] it was 8.4.

Take `Cc1cc(Br)c(Nc2ccnc(Nc3ccc(C#N)cc3)n2)c(Br)c1`: the logP in series [2] (read-out: logP) came out at 1.44. Moreover, the log(1/C) worked out at 8.52 in series [3], 8.47 in series [4] and 9.15 in series [5].

Consider `Cc1cc(Cl)cc(Cl)c1Nc1ccnc(Nc2ccc(C#N)cc2)n1`, for which the log(1/C) stood at 7.07 in series [1], 7.22 in series [3], 7.74 in series [4] and 9 in series [5]. In series [2] (read-out: logP), the logP is 0.89.

Consider `Cc1cc(C#N)cc(C)c1Oc1nc(Nc2ccc(C#N)cc2)nc(N)c1Br` [ETRAVIRINE], for which the log(1/C) in series [1] was found to be 8.34; in series [3], 8.48; in series [4], 8.15; in series [5], 8.85. For the same compound, the logP in series [2] (read-out: logP) turned out to be 1.54.

For `Cc1cc(Br)cc(C)c1Nc1ccnc(Nc2ccc(C#N)cc2)n1`, the log(1/C) stood at 7.16 in series [1], 7.12 in series [3], 7.77 in series [4] and 8.64 in series [5]. In series [2] (read-out: logP), the logP was determined as 1.54.

Regarding `Cc1cc(C#N)cc(C)c1Nc1nc(Nc2ccc(C#N)cc2)ncc1Br`, the log(1/C) in series [1] worked out at 8.48; in series [3], 8.15; in series [4], 8.02; in series [5], 9.4. In series [2] (read-out: logP), the logP is 1.39.

With `Cc1cc(C#N)cc(C)c1Oc1nc(Nc2ccc(C#N)cc2)ncc1N`, the log(1/C) in series [1] stood at 8.24; in series [3], 7.8; in series [4] it was 8.03; in series [5], 9. Besides, the logP in series [2] (read-out: logP) is -0.21.

`Cc1cc(C#N)cc(C)c1Oc1ccnc(Nc2ccc(C#N)cc2)n1`: the log(1/C) in series [1] was 7.72; in series [3], 7.14; in series [4] it was 7.43; in series [5] it was 8.96. Besides, the logP in series [2] (read-out: logP) worked out at 1.39.

Regarding `Cc1cc(C)c(Nc2ccnc(Nc3ccc(C#N)cc3)n2)c(C)c1` [DAPIVIRINE], the log(1/C) is 7.32 in series [1], 7.74 in series [3], 8.12 in series [4] and 9 in series [5]. In addition, the logP in series [2] (read-out: logP) is 1.64.

In the case of `Cc1cc(C)c(Nc2nc(Nc3ccc(C#N)cc3)ncc2C)c(C)c1`, the log(1/C) turned out to be 7.74 in series [1], 7.92 in series [3], 7.92 in series [4] and 8.77 in series [5]. Moreover, the logP in series [2] (read-out: logP) was 1.92.

Regarding `Cc1cc(C#N)cc(C)c1Oc1nc(Nc2ccc(C#N)cc2)ncc1Cl`, the log(1/C) was 8.32 in series [1], 8.12 in series [3], 7.47 in series [4] and 8.85 in series [5]. The logP in series [2] (read-out: logP) was found to be 1.29.
